# Source: patent US20030017146A1, “Arginine decomposing enzyme therapeutic composition” (priority 1996, published 2003)
# Entries after “also recorded” stand apart in the source; their conditions may differ.
# Assays:
# [1] = test system: HeLa Cells (human cervical carcinoma); assay: Arginine deprivation of HeLa cells in vitro, survival and recovery (cloning studies); type: cell-based
# Experimental: Our in vitro work (D. N. Wheatly: Personal communication) with HeLa Cells (human cervical carcinoma) and early passages of human fibroblasts has established limits of survival and recovery after different items of arginine deprivation. […] By 96 hours of deprivation all HeLa cells were dead. In contrast, healthy fibroblasts could be recovered after even 10 days of deprivation.
# Further work established that arginine concentration of 1 micro mole per liter had essentially the same effects as total deprivation. At 40 mircomolar, HeLa cycle was already disturbed, and killing of the cells started below 10 mircomolar. Thus our target “killing zone” for HeLa cells is 1 to 10 micromolar concentration of arginine during three to four days of deprivation.
# [2] = test system: thrombocytes; assay: Iloprost infusion against loss of thrombocytes limiting duration of dialysis sessions; type: in vivo, dogs; conditions: dog, infusion at 0.5 to 1.0 ng/kg/hr, last two sessions
# Experimental: No systemic problems were seen that would indicate serious threats caused by the lack of arginine. As discussed earlier, loss of thrombocytes was the main factor limiting duration of the sessions. In the last two sessions on the last dog we used yet another infusion pump to deliver iloprost (ILOMEDIN), Schering), a stable analog of prostacyclin (at 0.5 to 1.0 ng/kg/hr). […] By deployment of the approaches described earlier (oxygen supply) this problem will certainly be resolved.
# [3] = cited from earlier work
# [4] = Continuous hemodialysis removal of arginine with insulin/glucose clamp in healthy dogs; type: in vivo; conditions: dog plasma, direct infusion of insulin and glucose with dialysis, blood flow 300 to 400 ml/min, single filter
# From the text: We have thus devised an approach combining our technique of extracorporeal blood treatment for removal of arginine (or any number of selected amino acids) with a pharmacological intervention employing an insulin/glucose clamp. As mentioned earlier, insulin is both an inhibitor of muscle protein breakdown (of both lysosomal and proteasomal pathways) and a promoter of protein synthesis. Since the net release of amino acids depends on both of these cellular activities, insulin is an excellent choice.
# The upper two curves (dashed lines) are from the two sessions without insulin. Not shown are the concentrations of other amino acids, which could be maintained close to their pre-set levels (determined by their concentrations in the dialyzing fluid).
# A detailed description of the experiment performed on one (the first) of the last three dogs is as follows. […]
# Concentrations of amino acids in the blood plasma were measured on an amino acid analyzer (Pharmacia, Biochrom 20) using standard procedures of sample preparation. Using a short column and a truncated buffer program, several amino acids (phenylalanine, histidine, 3-methyl-histidine, tryptophan, lysine, and arginine) could be measured in about 30 minutes of analyzer running time. […]
# [5] = cited from earlier work; remark: listed apart in the source
# [6] = pH 7.4; cited from earlier work
molecule,measurement,setting,value
N=C(N)NCCC[C@H](N)C(=O)O [arginine],arginine concentration at which the cell cycle was already disturbed,[1],40 mircomolar
same,arginine concentration below which killing of the cells started,[1],below 10 mircomolar
same,arginine concentration with essentially the same effects as total deprivation,[1],1 micro mole per liter
CC#CCC(C)[C@H](O)/C=C/[C@@H]1[C@H]2C/C(=C/CCCC(=O)O)C[C@H]2C[C@H]1O (stereo partly shown) [iloprost],prolongation of the sessions,[2],slight prolongation only
Cc1ncc(COP(=O)(O)O)c(C=O)c1O [pyridoxal 5′-phosphate],half life,[3]; in circulation,about 15 minutes
"Cc1ncc(CO)c(CO)c1O.Cl [pyrodoxine hydrochloride, reference compound]",plasma concentration of pyridoxal 5'-phosphate reached,"[3]; human plasma, oral supplement of 100 mg/day, normal about 60 nM",450 nM
insulin,arginine level reached,[4],1.5 µM
"bADC: biosynthetic arginine decarboxylase of E. coli, tetramer of 296,000 molecular weight requiring pyridoxal 5'-phosphate and magnesium ion (protein, UniProt P21170 1-658, looked up) Biosynthetic arginine …: MSDDMSMGLPSSAGEHGVLRSMQEVAMSSQEASKMLRTYNIAWWGNNYYDVNELGHISVCPDPDVPEARVDLAQLVKTREAQGQRLPALFCFPQILQHRLRSINAAFKRARESYGYNGDYFLVYPIKVNQHRRVIESLIHSGEPLGLEAGSKAELMAVLAHAGMTRSVIVCNGYKDREYIRLALIGEKMGHKVYLVIEKMSEIAIVLDEAERLNVVPRLGVRARLASQGSGKWQSSGGEKSKFGLAATQVLQLVETLREAGRLDSLQLLHFHLGSQMANIRDIATGVRESARFYVELHKLGVNIQCFDVGGGLGVDYEGTRSQSDCSVNYGLNEYANNIIWAIGDACEENGLPHPTVITESGRAVTAHHTVLVSNIIGVERNEYTVPTAPAEDAPRALQSMWETWQEMHEPGTRRSLREWLHDSQMDLHDIHIGYSSGIFSLQERAWAEQLYLSMCHEVQKQLDPQNRAHRPIIDELQERMADKMYVNFSLFQSMPDAWGIDQLFPVLPLEGLDQVPERRAVLLDITCDSDGAIDHYIDGDGIATTMPMPEYDPENPPMLGFFMVGAYQEILGNMHNLFGDTEAVDVFVFPDGSVEVELSDEGDTVADMLQYVQLDPKTLLTQFRDQVKKTDLDAELQQQFLEEFEAGLYGYTYLEDE",pH of optimal activity,[5]; absolute requirement for magnesium ion,~8
same,Michaelis constant for pyridoxal 5'-phosphate,[5]; cofactor,0.6 µM
same,specific activity,"[5]; enzyme purified 1,000 fold",16.4 units/mg
same,magnesium saturation S0.5,[5]; sigmoidal magnesium saturation curve,1.3 mM
same,Michaelis constant for arginine,[5]; substrate,30 µM
"dADC: inducible (biodegradative) arginine decarboxylase of E. coli, molecular weight 850,000, induced by low pH (protein, UniProt P28629 1-755, looked up) Biodegradative arginine …: MKVLIVESEFLHQDTWVGNAVERLADALSQQNVTVIKSTSFDDGFAILSSNEAIDCLMFSYQMEHPDEHQNVRQLIGKLHERQQNVPVFLLGDREKALAAMDRDLLELVDEFAWILEDTADFIAGRAVAAMTRYRQQLLPPLFSALMKYSDIHEYSWAAPGHQGGVGFTKTPAGRFYHDYYGENLFRTDMGIERTSLGSLLDHTGAFGESEKYAARVFGADRSWSVVVGTSGSNRTIMQACMTDNDVVVVDRNCHKSIEQGLMLTGAKPVYMVPSRNRYGIIGPIYPQEMQPETLQKKISESPLTKDKAGQKPSYCVVTNCTYDGVCYNAKEAQDLLEKTSDRLHFDEAWYGYARFNPIYADHYAMRGEPGDHNGPTVFATHSTHKLLNALSQASYIHVREGRGAINFSRFNQAYMMHATTSPLYAICASNDVAVSMMDGNSGLSLTQEVIDEAVDFRQAMARLYKEFTADGSWFFKPWNKEVVTDPQTGKTYDFADAPTKLLTTVQDCWVMHPGESWHGFKDIPDNWSMLDPIKVSILAPGMGEDGELEETGVPAALVTAWLGRHGIVPTRTTDFQIMFLFSMGVTRGKWGTLVNTLCSFKRHYDANTPLAQVMPELVEQYPDTYANMGIHDLGDTMFAWLKENNPGARLNEAYSGLPVAEVTPREAYNAIVDNNVELVSIENLPGRIAANSVIPYPPGIPMLLSGENFGDKNSPQVSYLRSLQSWDHHFPGFEHETEGTEIIDGIYHVMCVKA",catalytic activity at physiological pH,[6],vanishes; also recorded: near total loss of activity
